Patent US20080153888A1, “ALPHA-2-DELTA LIGAND/NSAID THERAPEUTIC TREATMENT OF LOWER URINARY TRACT DISORDERS” (Recordati Ireland Limited, priority 2006, published 2008)

Tested on: anesthetized rats with acetic acid bladder infusion (animal model of overactive bladder)
Assay: Cystometry in anesthetized rats with acetic acid bladder infusion;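 further: Single-filling cystometrograms via bladder-dome catheter, basal values taken after 60 min saline infusion, BVC as mL infused until micturition, MP as peak intravesical pressure (mm Hg)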
Format: in vivo, rat
Conditions: for % Bladder Volume Capacity (vs basal) ± S.E. / ED60 (CL 95%) of recovery of Bladder Volume Capacity to basal value: single drug; for % Bladder Volume Capacity (vs basal) ± S.E.: cumulative administration; for ED60 (CL 95%) of recovery of Bladder Volume Capacity to basal value: i.v., cumulative dose-response
Description: Female rats (225-250 g body weight) were anesthetized with urethane (1.25 g/kg s.c.) and a catheter (PE-50, 0.58 mm I.D.×0.96 mm O.D.) was inserted into the jugular vein for intravenous drug administration. A midline lower abdominal incision was made and a second PE-50 catheter was inserted into the bladder dome for bladder filling and pressure recording, and the incision was sutured.
Dosages were administered by injection in a volume of 1 ml per kg body weight.
a) Saline was continuously infused at a rate of 0.055 ml/min by mean of a peristaltic pump via the bladder-filling catheter for 60 minutes to obtain a baseline of bladder activity. Then the infusion pump was stopped and the bladder was emptied of residual fluid by capillarity via the infusion catheter. After this procedure, a single filling cystometrogram was performed in order to determine the two urodynamic parameters: bladder volume capacity (BVC) and micturition pressure (MP) (BVC and MP BASAL VALUES).
After 30 minutes of acetic acid infusion, 3 vehicle injections were made at 20 minute intervals. Then the infusion pump was stopped, the bladder was emptied and a single filling cystometrogram was recorded as reported before (BVC and MP VALUES AFTER IRRITATION).
This procedure was repeated for three times in order to follow a cumulative dose-response protocol.
BVC is defined as the volume (mL) of fluid (saline or dilute acetic acid) infused in the bladder necessary to induce detrusor contractions followed by micturition. MP is defined as the maximal intravesical pressure (mm Hg) determined by the contraction of the detrusor during micturition.
Changes in bladder capacity for each animal were expressed as “% bladder volume capacity vs. basal (saline infusion)” and an increase in this index was used as measure of efficacy (recovery from irritation to basal value).

CS(=O)(=O)Nc1ccc([N+](=O)[O-])cc1Oc1ccccc1 [Nimesulide]
% Bladder Volume Capacity (vs basal) ± S.E. (dose 0.3 mg/kg i.v.): 38 ± 10%
% Bladder Volume Capacity (vs basal) ± S.E. (dose 1.0 mg/kg i.v.): 36 ± 12%
% Bladder Volume Capacity (vs basal) ± S.E. (dose 3 mg/kg i.v.): 37 ± 7%
% Bladder Volume Capacity (vs basal) ± S.E. (dose 10 mg/kg i.v.): 47 ± 15%
ED60 (CL 95%) of recovery of Bladder Volume Capacity to basal value: >>10

CC1=C(CC(=O)O)c2cc(F)ccc2/C1=C\c1ccc([S+](C)[O-])cc1 (stereo not shown) [Sulindac, sulindac]
% Bladder Volume Capacity (vs basal) ± S.E. (dose 0.3 mg/kg i.v.): 27 ± 5%
% Bladder Volume Capacity (vs basal) ± S.E. (dose 1.0 mg/kg i.v.): 39 ± 11%
% Bladder Volume Capacity (vs basal) ± S.E. (dose 3 mg/kg i.v.): 34 ± 8%
% Bladder Volume Capacity (vs basal) ± S.E. (dose 10 mg/kg i.v.): 38 ± 4%
% Bladder Volume Capacity (vs basal) ± S.E. (dose 30 mg/kg i.v.): 54 ± 8%
ED60 (CL 95%) of recovery of Bladder Volume Capacity to basal value: >30

O=C(O)Cc1ccccc1Nc1c(Cl)cccc1Cl [Diclofenac, diclofenac]
% Bladder Volume Capacity (vs basal) ± S.E. (dose 0.3 mg/kg i.v.): 41 ± 10%
% Bladder Volume Capacity (vs basal) ± S.E. (dose 1.0 mg/kg i.v.): 63 ± 13%
% Bladder Volume Capacity (vs basal) ± S.E. (dose 3 mg/kg i.v.): 82 ± 15%
ED60 (CL 95%) of recovery of Bladder Volume Capacity to basal value: 0.85 (0.80-0.90)

NCC1(CC(=O)O)CCCCC1 [Gabapentin]
% Bladder Volume Capacity (vs basal) ± S.E. (dose 30 mg/kg i.v.): 27 ± 4%
% Bladder Volume Capacity (vs basal) ± S.E. (dose 60 mg/kg i.v.): 51 ± 15%
% Bladder Volume Capacity (vs basal) ± S.E. (dose 100 mg/kg i.v.): 55 ± 9%
% Bladder Volume Capacity (vs basal) ± S.E. (dose 300 mg/kg i.v.): 82 ± 12%
ED60 (CL 95%) of recovery of Bladder Volume Capacity to basal value: 112 (75-149)

CC(C)C[C@H](CN)CC(=O)O [Pregabalin, pregabalin]
micturition pressure (MP) (after increase of MP induced by acetic acid infusion, data not shown): recovered to basal values
% Bladder Volume Capacity (vs basal) ± S.E. (dose 10 mg/kg i.v.): 31 ± 6%
% Bladder Volume Capacity (vs basal) ± S.E. (dose 30 mg/kg i.v.): 35 ± 6%
% Bladder Volume Capacity (vs basal) ± S.E. (dose 100 mg/kg i.v.): 52 ± 8%
ED60 (CL 95%) of recovery of Bladder Volume Capacity to basal value: 300.5 (n.c.-n.c.)

CC(C(=O)O)c1ccc(-c2ccccc2)c(F)c1 (stereo not shown) [Flurbiprofen, flurbiprofen]
% Bladder Volume Capacity (vs basal) ± S.E. (dose 0.1 mg/kg i.v.): 43 ± 11%
% Bladder Volume Capacity (vs basal) ± S.E. (dose 0.3 mg/kg i.v.): 42 ± 6%
% Bladder Volume Capacity (vs basal) ± S.E. (dose 1.0 mg/kg i.v.): 49 ± 9%
% Bladder Volume Capacity (vs basal) ± S.E. (dose 3 mg/kg i.v., 3 mg/kg): 62 ± 10%
% Bladder Volume Capacity (vs basal) ± S.E. (dose 10 mg/kg i.v.): 73 ± 12%
ED60 (CL 95%) of recovery of Bladder Volume Capacity to basal value: 2.34 (nc-4.77)
